The structures appear in SMILES notation.

The target in this assay is T1, Pancreatic alpha-amylase (Sus scrofa, UniProt P00690).
T1 sequence (P00690 whole entry): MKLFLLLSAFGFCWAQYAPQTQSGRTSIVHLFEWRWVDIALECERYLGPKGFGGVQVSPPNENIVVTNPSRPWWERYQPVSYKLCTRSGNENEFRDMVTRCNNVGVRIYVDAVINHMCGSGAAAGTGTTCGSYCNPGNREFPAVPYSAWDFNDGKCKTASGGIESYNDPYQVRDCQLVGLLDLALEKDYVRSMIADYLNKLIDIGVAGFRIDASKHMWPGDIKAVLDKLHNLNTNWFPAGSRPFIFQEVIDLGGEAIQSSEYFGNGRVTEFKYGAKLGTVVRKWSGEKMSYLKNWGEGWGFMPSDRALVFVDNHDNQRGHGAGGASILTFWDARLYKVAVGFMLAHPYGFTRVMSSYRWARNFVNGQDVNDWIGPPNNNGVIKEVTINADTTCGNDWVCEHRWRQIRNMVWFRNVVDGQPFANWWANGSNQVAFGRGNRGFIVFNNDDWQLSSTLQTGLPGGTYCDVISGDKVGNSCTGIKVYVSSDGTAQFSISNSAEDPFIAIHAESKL
Nature of the assay: Inhibition of porcine pancreatic alpha-amylase using starch as substrate preincubated for 10 mins followed by substrate addition measured after 10 mins by dinitrosalicylic acid color reagent based assay.
As usually defined, the IC50 is the concentration that inhibits the measured activity by half. Low values mean inhibition by little substance, high ones a need for much substance. `Cc1ccc(CN2CCN(S(=O)(=O)c3cc(Cl)ccc3Cl)CC2)cc1` showed an IC50 of 2880 nM.

For `Cc1ccc(CN2CCN(S(=O)(=O)c3ccc(Cl)cc3Cl)CC2)cc1`, half-maximal inhibition (IC50) was put at 3140 nM.

The compound `Cc1ccc(CN2CCN(S(=O)(=O)c3ccc(F)cc3)CC2)cc1` registered an IC50 of 1570 nM.

In turn, `Cc1ccc(CN2CCN(S(=O)(=O)c3ccc(C)cc3)CC2)cc1` registered an IC50 of 2870 nM. Then `Cc1ccc(CN2CCN(S(=O)(=O)c3ccccc3[N+](=O)[O-])CC2)cc1`, with 3980 nM; and `Cc1ccc(CN2CCN(S(=O)(=O)c3cc(Cl)cc(Cl)c3)CC2)cc1`, with 3560 nM. The value for `Cc1ccc(CN2CCN(S(=O)(=O)c3ccccc3Cl)CC2)cc1` was 3200 nM; that for `Cc1ccc(CN2CCN(S(=O)(=O)c3cccc(Cl)c3Cl)CC2)cc1` was 2670 nM; that for `Cc1ccc(CN2CCN(S(=O)(=O)c3ccc(Cl)c(Cl)c3)CC2)cc1` was 2980 nM. Then `Cc1ccc(CN2CCN(S(=O)(=O)c3ccccc3C)CC2)cc1`, with 2880 nM; and `Cc1ccc(CN2CCN(S(=O)(=O)c3ccc([N+](=O)[O-])cc3[N+](=O)[O-])CC2)cc1`, with 2930 nM; and `Cc1ccc(CN2CCN(S(=O)(=O)c3cc(Cl)c(Cl)cc3Cl)CC2)cc1`, with 3520 nM. As for `Cc1ccc(CN2CCN(S(=O)(=O)c3ccccc3F)CC2)cc1`, the IC50 turned out to be 3050 nM. The value for `Cc1ccc(CN2CCN(S(=O)(=O)c3cccc([N+](=O)[O-])c3)CC2)cc1` was 2750 nM; that for `Cc1ccc(CN2CCN(S(=O)(=O)c3ccc([N+](=O)[O-])cc3)CC2)cc1` was 2820 nM.

With `COc1ccc(S(=O)(=O)N2CCN(Cc3ccc(C)cc3)CC2)cc1`, inhibition was half-maximal at 2060 nM (IC50). Then `Cc1ccc(CN2CCN(S(=O)(=O)c3ccc(Cl)cc3)CC2)cc1`, with 2350 nM. The value for `Cc1ccc(CN2CCN(S(=O)(=O)c3ccc(Br)cc3)CC2)cc1` was 2120 nM; that for `Cc1ccc(CN2CCN(S(=O)(=O)c3cccc(Br)c3)CC2)cc1` was 3450 nM.

Source of the values: ChEMBL document CHEMBL4251552, “Synthesis of piperazine sulfonamide analogs as diabetic-II inhibitors and their molecular docking study” (Eur J Med Chem, 2017).
